Biological target: T1, KRAS G12C 1-169, his-tagged protein, GDP-loaded (Homo sapiens, UniProt P01116, G12C)
T1 construct: KRAS G12C 1-169, his-tagged protein, GDP-loaded
Assay: Biochemical assay: covalent binding to KRAS G12C analyzed by mass spectrometry; note: test concentration or dose not given here
Settings: compounds 1-47, measured at 24 h

T1 sequence (P01116 1-169 isoform P01116-2 G12C): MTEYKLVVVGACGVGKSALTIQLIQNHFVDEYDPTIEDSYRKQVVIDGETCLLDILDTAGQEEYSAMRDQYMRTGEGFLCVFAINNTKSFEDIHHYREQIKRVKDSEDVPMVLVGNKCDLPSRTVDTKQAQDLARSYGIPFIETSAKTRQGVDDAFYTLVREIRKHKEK

| Compound | Binding % |
| --- | --- |
| C=CC(=O)N1CCN(c2ncnc3cc(Cl)c(-c4ccccc4Cl)cc23)CC1 [Compound I-1, 1-(4-(7-chloro-6-(2-chlorophenyl)quinazolin-4-yl)piperazin-1-yl)prop-2-en-1-one] | +++ (+++indicates binding activity greater than 50% and up to 75%) |
| C=CC(=O)N1CCN(c2ncnc3cc(Cl)c(-c4ccc(Cl)cc4OC)cc23)CC1 [Compound I-13, 1-(4-(7-chloro-6-(4-chloro-2-methoxyphenyl)quinoazlin-4-yl)piperazin-1-yl)prop-2-en-1-one] | ++ (++indicates binding activity greater than 25% and up to 50%) |

Same assay, conditions: compounds 48-246, measured at 2 h

| Compound | Binding % |
| --- | --- |
| C=CC(=O)N1CCN(c2ncnc3cc(-c4ccccc4)ccc23)CC1 [Compound I-87] | + (+indicates binding activity from 5% to 25%) |
| C=CC(=O)N1CCN(c2ncnc3cc(-c4c(O)ccc(F)c4F)c(Cl)cc23)CC1 [Compound I-203, 1-(4-(6-chloro-7-(2,3-difluoro-6-hydroxyphenyl)quinazolin-4-yl)piperazin-1-yl)prop-2-en-1-one] | ++++ (++++indicates binding activity greater than 75%) |
| C=CC(=O)N1CCN(c2ncnc3cc(-c4ccc5[nH]ncc5c4)c(Cl)cc23)CC1 [Compound I-144, 1-(4-(6-chloro-7-(1H-indazol-5-yl)quinazolin-4-yl)piperazin-1-yl)prop-2-en-1-one] | + (+indicates binding activity from 5% to 25%) |
| C=CC(=O)N1CCN(c2ncnc3cc(-c4ccccc4F)c(Cl)cc23)CC1 [Compound I-81, 1-(4-(6-chloro-7-(2-fluorophenyl)quinazolin-4-yl)piperazin-1-yl)prop-2-en-1-one] | +++ (+++indicates binding activity greater than 50% and up to 75%) |
| C=CC(=O)N1CCN(c2ncnc3cc(-c4ccccc4O)c(Cl)cc23)CC1C (centres unmarked) [Compound I-134, 1-(4-(6-chloro-7-(2-hydroxyphenyl)quinazolin-4-yl)-2-methylpiperazin-1-yl)prop-2-en-1-one] | ++ (++indicates binding activity greater than 25% and up to 50%) |
| C=CC(=O)N1CCN(c2ncnc3cc(-c4ccccc4C#N)c(Cl)cc23)CC1 [Compound I-105, 2-(4-(4-acryloylpiperazin-1-yl)-6-chloroquinazolin-7-yl)benzonitrile] | + (+indicates binding activity from 5% to 25%) |
| C=CC(=O)N1CCN(c2c(C#N)cnc3cc(-c4ccccc4C(F)(F)F)c(Cl)cc23)CC1 [Compound I-173, 4-(4-acryloylpiperazin-1-yl)-6-chloro-7-(2-(trifluoromethyl)phenyl) quinoline-3-carbonitrile] | ++++ (++++indicates binding activity greater than 75%) |
| C=CC(=O)N1CCN(c2ncnc3cc(-c4ccccc4S(N)(=O)=O)c(Cl)cc23)CC1 [Compound I-213, 2-(4-(4-acryloylpiperaqzin-1-yl)-6-chloroquinazolin-7-yl)benzenesulfonamide] | ++ (++indicates binding activity greater than 25% and up to 50%) |
| C=CC(=O)N1CCN(c2ncnc3cc(Cl)c(-c4ccc(Cl)cc4)cc23)CC1CC#N (centres unmarked) [Compound I-70, 2-(1-acryloyl-4-(7-chloro-6-(4-chlorophenyl)quinazolin-4-yl)piperazin-2-yl)acetonitrile] | +++ (+++indicates binding activity greater than 50% and up to 75%) |
| C=CC(=O)N1CCN(c2ncnc3cc(-c4cccc5c4OC(F)(F)O5)c(Cl)cc23)CC1 [Compound I-200, 1-(4-(6-chloro-7-(2,2-difluorobenzo[d][1,3]dioxol-4-yl)quinazolin-4-yl)piperazin-1-yl)prop-2-en-1-one] | ++ (++indicates binding activity greater than 25% and up to 50%) |
| C=CC(=O)N1CCN(c2ccnc3cc(-c4ccccc4)c(Cl)cc23)CC1 [Compound I-91, 1-(4-(6-chloro-7-phenylquinolin-4-yl)piperazin-1-yl)prop-2-en-1-one] | ++ (++indicates binding activity greater than 25% and up to 50%) |
| C=CC(=O)N1CCN(c2ncnc3cc(Cl)c(C4CC4)cc23)CC1C#N (centres unmarked) [Compound I-55, 1-acryloyl-4-(7-chloro-6-cyclopropylquinazolin-4-yl)piperazine-2-carbonitrile] | ++++ (++++indicates binding activity greater than 75%) |
| C=CC(=O)N1CCN(c2ncnc3cc(Cl)c(-c4ccc(Cl)cc4)cc23)CC1CC(N)=O (centres unmarked) [Compound I-69, 2-(1-acryloyl-4-(7-chloro-6-(4-chlorophenyl)quinazolin-4-yl)piperazin-2-yl)acetamide] | + (+indicates binding activity from 5% to 25%) |

Same assay, conditions: compounds 247-342, measured at 30 min

| Compound | Binding % |
| --- | --- |
| C=CC(=O)N1CCN(c2ncnc3c(OC)c(-c4ccc(F)cc4F)c(Cl)cc23)CC1 [Compound 306, 1-(4-(6-chloro-7-(2,4-difluorophenyl)-8-methoxyquinazolin-4-yl)piperazin-1-yl)prop-2-en-1-one] | ++ (++indicates binding activity greater than 25% and up to 50%) |
| CC(C)/C=C(\C#N)C(=O)N1CCN(c2ncnc3c(F)c(-c4c(O)cccc4F)c(Cl)cc23)CC1 [Compound I-282, (E)-2-(4-(6-chloro-8-fluoro-7-(2-fluoro-6-hydroxyphenyl)quinazolin-4-yl)piperazine-1-carbonyl)-4-methylpent-2-enenitrile] | +++ (+++indicates binding activity greater than 50% and up to 75%) |
| CN(C)C/C=C/C(=O)N1CCN(c2ncnc3c(F)c(-c4cc(O)cc5ccccc45)c(Cl)cc23)CC1 [Compound 325, (E)-1-(4-(6-chloro-8-fluoro-7-(3-hydroxynaphthalen-1-yl)quinazolin-4-yl)piperazin-1-yl)-4-(dimethylamino)but-2-en-1-one] | ++ (++indicates binding activity greater than 25% and up to 50%) |
| C=CC(=O)N1CCN(c2ncnc3cc(-c4c(Cl)ccc5[nH]ncc45)c(Cl)cc23)CC1 [Compound I-266, 1-(4-(6-chloro-7-(5-chloro-1H-indazol-4-yl)quinazolin-4-yl)piperazin-1-yl)prop-2-en-1-one] | +++ (+++indicates binding activity greater than 50% and up to 75%) |
| N#C/C=C\C(=O)N1CCN(c2ncnc3cc(-c4ccc(F)cc4F)c(Cl)cc23)CC1 [Compound I-263, (Z)-4-(4-(6-chloro-7-(2,4-difluorophenyl)quinaozlin-4-yl)piperazin-1-yl)-4-oxobut-2-enenitrile] | + (+indicates binding activity from 5% to 25%) |
| C=CC(=O)N1CCN(c2c(C#N)cnc3c(F)c(-c4c(C)ccc5cn[nH]c45)c(Cl)cc23)CC1 [Compound 308, 4-(4-acryloylpiperazin-1-yl)-6-chloro-8-fluoro-7-(6-methyl-1H-indazol-7-yl)quinoline-3-carbonitrile] | +++ (+++indicates binding activity greater than 50% and up to 75%) |

Same assay, conditions: determined at 2 hrs

| Compound | Binding % |
| --- | --- |
| C=CC(=O)N1CC(N2CCN(C(=O)CNc3cc(Cl)c(CC)cc3O)CC2)C1 [II-52, 1-(3-(4-(2-(5-chloro-4-ethyl-2-hydroxyphenylamino)acetyl)piperazin-1-yl)azetidin-1-yl)prop-2-en-1-one] | + (+indicates binding activity from 5% to 20%) |
| C=CC(=O)N1CC(N2CCN(C(=O)[C@H](C)Nc3cc(CC)c(Cl)cc3O)CC2)C1 [II-69, (S)-1-(3-(4-(2-((4-Chloro-5-ethyl-2-hydroxyphenyl)amino)propanoyl)piperazin-1-yl)azetidin-1-yl)prop-2-en-1-one] | ++ (++indicates binding activity greater than 20%) |
| C=CC(=O)N1CC(N2CCN(c3cc(-c4cc(CC)c(Cl)cc4O)n[nH]3)CC2)C1 [II-72, 1-(3-(4-(3-(4-chloro-5-ethyl-2-hydroxyphenyl)-1H-pyrazol-5-yl)piperazin-1-yl)azetidin-1-yl)prop-2-en-1-one] | + (+indicates binding activity from 5% to 20%) |

Same assay, conditions: determined at 24 hrs

| Compound | Binding % |
| --- | --- |
| C=CC(=O)N1CC(N2CCN(C(=O)CNc3cc(C)c(Cl)cc3O)CC2)C1 [II-32, 1-(3-(4-(2-(4-chloro-2-hydroxy-5-methylphenylamino)-acetyl)piperazin-1-yl)azetidin-1-yl)prop-2-en-1-one] | ++++ (++++indicates binding activity greater than 50%) |
| C=CC(=O)N1CC(N2CCN(C(=O)CNc3cc(C(F)(F)F)c(Cl)cc3OC)CC2)C1 [II-37, 1-(3-(4-(2-(4-chloro-2-methoxy-5-(trifluoromethyl)-phenylamino)acetyl)-piperazin-1-yl)azetidin-1-yl)prop-2-en-1-one] | ++ (++indicates binding activity greater than 15% and up to 25%) |
| C=CC(=O)N1CC(N2CCN(C(=O)CN3CC(=O)Nc4ccccc43)CC2)C1 [II-42, 4-(2-(4-(1-acryloylazetidin-3-yl)piperazin-1-yl)-2-oxoethyl)-3,4-dihydroquinoxalin-2(1H)-one] | + (+indicates binding activity from 5% to 15%) |
| C=CC(=O)N1CC(N2CCN(C(=O)CNc3cc(O)cc(Cl)c3)CC2)C1 [II-33, 1-(3-(4-(2-(3-chloro-5-hydroxyphenylamino)-acetyl)piperazin-1-yl)azetidin-1-yl)prop-2-en-1-one] | + (+indicates binding activity from 5% to 15%) |
| C=CC(=O)N1CCC(N2CCN(C(=O)CNc3cc(I)c(Cl)cc3O)CC2)C1 (centres unmarked) [II-11] | ++++ (++++indicates binding activity greater than 50%) |
| C=CS(=O)(=O)N1CCN(C2CN(C(=O)CNc3cc(Cl)c(Cl)cc3O)C2)CC1 [II-40, 2-(4,5-dichloro-2-hydroxyphenylamino)-1-(3-(4-(vinylsulfonyl)-piperazin-1-yl)azetidin-1-yl)ethanone] | ++++ (++++indicates binding activity greater than 50%) |
| C=CC(=O)N1CCC(N2CCN(C(=O)CNc3cc(C)c(Cl)cc3O)CC2)C1 (centres unmarked) [II-7, 1-(3-(4-(2-(4-chloro-2-hydroxy-5-methylphenylamino)-acetyl)piperazin-1-yl)pyrrolidin-1-yl)prop-2-en-1-one] | ++ (++indicates binding activity greater than 15% and up to 25%) |
| C=CC(=O)N1CC(N2CCN(C(=O)CNc3cc(Br)c(Cl)cc3O)CC2)C1 [II-18, 1-(3-(4-(2-(5-bromo-4-chloro-2-hydroxyphenyl-amino)acetyl)piperazin-1-yl)azetidin-1-yl)prop-2-en-1-one] | ++++ (++++indicates binding activity greater than 50%) |

Source: patent US10111874B2, “Combination therapies for treatment of cancer” (Araxes Pharma LLC, priority 2014, dated 2018)
